{"source": "patent US20250270170A1", "about": "“2,3-DIMETHOXY-5-METHYL-1,4-BENZOQUINONE ALKYL ALCOHOL DERIVATIVE AND USE THEREOF” (BEIJING ANJIANXI BIO-MEDICAL TECHNOLOGY CO., LTD., priority 2021, published 2025)", "key": {"[1]": {"test_system": "cisplatin-induced acute kidney damage in mice", "experiment": "Example 11: kidney weight and kidney coefficient in cisplatin-induced acute kidney damage model", "assay_type": "in vivo, C57BL/6J mice", "conditions": "for Kidney coefficient (kidney weight/body weight), x (mean) / Kidney weight after the assay, x (mean): group mean", "experimental": "(§1) 42 male C57BL/6J mice (age: 6 to 8 weeks, body weight 18-20 g, certificate number: 11400700238365) were purchased from Si Pei Fu (Beijing) Biotechnology Co., Ltd., and raised in an SPF-grade animal room of the Institute of Materia Medica, Chinese Academy of Medical Sciences, at a temperature of 20 to 25° C., a relative humidity of 40% to 70%, and a cycle of 12 hours of light and 12 hours of dark. The animals had free access to water and food. After 3 days of normal feeding, mice with good physical conditions after the veterinary examination were selected for this assay. Before grouping, a marker was used to mark on the base of the animals' tail. After grouping, each animal was marked with an ear cutout (7 mice in each group).\n(§2) Assay animals: 42 7-week-old male C57 mice were used for animal testing after an adaptive feeding.\n(§3) Group 1: blank control group;\n(§4) The preparation of the R01 formulation administration test solution was the same as that in Example 5: an appropriate amount of the R01 formulation was weighed according to the three dosages set in the assay, respectively, and an appropriate volume of 0.5% CMC-Na aqueous solution was added. The mixture was vortexed and sonicated until mixed evenly, to give the administration test solutions with concentrations of […], respectively, which were ready for use.\n(§5) Animal testing period: 7 days (excluding adaptive feeding), hereinafter referred to as: D1-D7.\n(§6) 1. The first group was a solvent control group: N=7, all mice were males (the same below); • a) 0.5% solution of sodium carboxymethyl cellulose was gavagely administered from D1 to D6 (twice a day for each animal, with an interval of 8 hours between the morning and the afternoon). • b) Physiological saline was intraperitoneally injected in one-time on D4. • c) On D7, blood was collected from the orbit for euthanasia (300 ul of serum was extracted), the left kidney was fixed in formaldehyde, and the right kidney was preserved in liquid nitrogen (WB study may be carried out).\n(§7) 3) Each animal was weighed before euthanasia, and the weight was recorded. Two kidneys were weighed as soon as possible after euthanasia, and the weight was recorded. Then, the two kidneys were quickly fixed or cryopreserved, and the kidney coefficient of the mouse was calculated (kidney weight/mouse weight).\n(§8) The body weight of the animals when being grouped for administration in each group was recorded. The body weight and the kidney weight at the end of the assay were also recorded, and the kidney coefficient was calculated. The creatinine and urea nitrogen values in the blood samples sent for testing were recorded. The kidneys were stained with HE and PAS, and the slides were scanned. A report was issued after the pathological analysis.\n(§9) The assay data were calculated and processed statistically using Microsoft Office Excel 2007 software. Unless otherwise specified, the data were expressed as mean±standard error (Mean±SE), and t-test was used for comparison between two groups."}, "[2]": {"experiment": "Example 11: body weight in cisplatin-induced acute kidney damage model", "assay_type": "in vivo, C57BL/6J mice", "conditions": "mouse, in vivo", "experimental": "as §1, §2, §3, §4, §5, §6, §7, §8, §9"}, "[3]": {"test_system": "A549 cells", "experiment": "CCK-8 cell proliferation assay, A549", "assay_type": "cell-based", "conditions": "Homo sapiens", "experimental": "(1) Cells in the logarithmic growth phase were taken and digested to make a cell suspension. 20 μl of the cell suspension was taken with a pipette, and added to a CountStar disposable cell counting plate for cell counting, and the counting results were recorded. The cell concentration was adjusted to 30,000 to 40,000 cells/ml (note: different cells have different growth rates, so the number of cells in each well was slightly different).\n(2) A 96-well plate was taken. Since the wells in the outermost circle of the culture plate were easy to evaporate and dry, causing inaccurate volumes, and increasing errors, 100 μl of PBS was added to the wells in the outermost circle, which were not used as assay wells.\n(3) The adjusted cell suspension was added to the 96-well plate, with 100 μl in each well, resulting approximately 3000 to 4000 cells in each well. The plate was placed in a 37° C. incubator under the condition of 5% CO2 for cell culture, and the drug was added when the cells adhered to the wall.\n(4) Drug dilution. The concentration gradient was set as: 0 μM, 10 μM, 50 μM, 100 μM, and 200 μM, with 3 duplicates for each concentration. In addition, blank control wells containing only culture medium and drug without cells were also set.\n(5) The plate was incubated in the incubator for 24 h, 48 h and 72 h, respectively. After reaching the set time point, the 96-well plate was taken out from the incubator, and 10 μl of CCK-8 reagent was added to each well, taking care to avoid bubbles. The plate was shaked to mix evenly, and put back into the incubator to culture for another 2 hours.\n(6) To detect the absorbance, the 96-well plate was placed in a […], and the absorbance value (OD value) at 450 nm was detected. The data was recorded. Cell viability=(OD value of the assay well−OD value of the blank control well)/(OD value of the solvent control well−OD value of the blank control well)×100%.\n(7) The data was imported into GraphPad Prism5 for plotting. The IC50 values were calculated, and the curves were drawn."}, "[4]": {"conditions": "individual animals No. 1-7, cisplatin model, R01 6 mg/kg, listed as R01, 6 mg/kg"}, "[5]": {"conditions": "individual animals No. 1-7, cisplatin model, R01 18 mg/kg, listed as R01, 18 mg/kg"}, "[6]": {"conditions": "individual animals No. 1-7, cisplatin model, R01 36 mg/kg, listed as R01, 36 mg/kg"}}, "note": "“And” between values parts separate entries of the source, which are not always exact repeats. Equal values may be shown once.", "data": [{"smiles": "COC1=C(OC)C(=O)C(CCCCCCCCCCOC(=O)Cc2c(C)n(C(=O)c3ccc(Cl)cc3)c3ccc(OC)cc23)=C(C)C1=O", "note": "[compound of formula (I)]", "values": [{"measurement": "Kidney coefficient (kidney weight/body weight), x (mean)", "setting": "[1]; cisplatin model, R01 6 mg/kg", "result": 0.014}, {"measurement": "Kidney weight after the assay, x (mean)", "setting": "[1]; cisplatin model, R01 6 mg/kg", "result": 0.223, "unit": "g"}, {"measurement": "Kidney coefficient (kidney weight/body weight), x (mean)", "setting": "[1]; cisplatin model, R01 18 mg/kg", "result": 0.013}, {"measurement": "Kidney weight after the assay, x (mean)", "setting": "[1]; cisplatin model, R01 18 mg/kg", "result": 0.211, "unit": "g"}, {"measurement": "Kidney coefficient (kidney weight/body weight), x (mean)", "setting": "[1]; cisplatin model, R01 36 mg/kg", "result": 0.013}, {"measurement": "Kidney weight after the assay, x (mean)", "setting": "[1]; cisplatin model, R01 36 mg/kg", "result": 0.207, "unit": "g"}, {"measurement": "Kidney coefficient (kidney weight/body weight)", "setting": "[1]; [4]", "result": "0.013 (3×) and 0.015 and 0.014 (2×) and 0.018"}, {"measurement": "Kidney weight after the assay", "setting": "[1]; [4]", "result": "0.207 g and 0.212 g and 0.209 g and 0.224 g and 0.228 g and 0.214 g and 0.270 g"}, {"measurement": "Kidney coefficient (kidney weight/body weight)", "setting": "[1]; [5]", "result": "0.014 (3×) and 0.013 (4×)"}, {"measurement": "Kidney weight after the assay", "setting": "[1]; [5]", "result": "0.214 g and 0.211 g (2×) and 0.206 g and 0.215 g and 0.210 g and 0.213 g"}, {"measurement": "Kidney coefficient (kidney weight/body weight)", "setting": "[1]; [6]", "result": "0.012 and 0.014 (4×) and 0.013 (2×)"}, {"measurement": "Kidney weight after the assay", "setting": "[1]; [6]", "result": "0.192 g and 0.216 g and 0.203 g and 0.228 g and 0.213 g and 0.189 g and 0.206 g"}, {"measurement": "Kidney coefficient (kidney weight/body weight)", "setting": "[1]; with cisplatin 10 mg/kg, amifostine 50 mg/kg i.p., R01 6, 18, 36 mg/kg bid", "result": "equivalent to that of the blank control group"}, {"measurement": "Body weight after the assay, After x (mean)", "setting": "[2]; 6 mg/kg", "result": 16.2, "unit": "g"}, {"measurement": "Body weight, Before x- after x", "setting": "[2]; 6 mg/kg", "result": 4.2, "unit": "g"}, {"measurement": "Body weight after the assay, After x (mean)", "setting": "[2]; 18 mg/kg", "result": 16.2, "unit": "g"}, {"measurement": "Body weight, Before x- after x", "setting": "[2]; 18 mg/kg", "result": 4.3, "unit": "g"}, {"measurement": "Body weight after the assay, After x (mean)", "setting": "[2]; 36 mg/kg", "result": 16.1, "unit": "g"}, {"measurement": "Body weight, Before x- after x", "setting": "[2]; 36 mg/kg", "result": 4.4, "unit": "g"}, {"measurement": "IC50", "setting": "[3]; 24 h", "result": "213.2 ± 1.22", "unit": "µM"}, {"measurement": "IC50", "setting": "[3]; 48 h", "result": "55.5 ± 1.84", "unit": "µM"}, {"measurement": "IC50", "setting": "[3]; 72 h", "result": "39.7 ± 0.98", "unit": "µM"}]}]}
